How the values were obtained:
[1] = biological target: EGFR bearing the L858R/T790M double mutation (Homo sapiens, UniProt P00533, L858R/T790M); experiment: Kinase inhibition, EGFR L858R/T790M; format: biochemical; settings: 10 μM ATP; 10 pt curves, 3 μM top concentration (singlicates)
Outline: (§1)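 With ATP at 10 μM, single-replicate 10-point dose curves starting at 3 μM top concentration were run against each EGFR form: wild-type, L858R, and the L858R/T790M double mutant.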

[2] = biological target: human EGFR (native sequence) (Homo sapiens, UniProt P00533); experiment: Kinase inhibition, human EGFR (native sequence); format: biochemical; settings: 10 μM ATP; 10 pt curves, 3 μM top concentration (singlicates)
Outline: as §1

[3] = biological target: BAF3 EGFR DEL T790M PURO POOL (Homo sapiens, UniProt P00533, DEL746-750/T790M, cells depend on it); experiment: Cell proliferation (MTT), BAF3 EGFR DEL T790M; format: cell-based
Outline: (§2)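 In this screen, MTT reduction reported on proliferation of BaF3 cells dependent on mutated EGFR and of matched BaF3 cells expressing wildtype receptor.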

[4] = biological target: EGFR bearing the L858R mution (Homo sapiens, UniProt P00533, L858R); experiment: Kinase inhibition, EGFR L858R; format: biochemical; settings: 10 μM ATP; 10 pt curves, 3 μM top concentration (singlicates)
Outline: as §1

[5] = tested on: BAF3 PARENTAL; experiment: Cell proliferation (MTT), BAF3 parental; format: cell-based; settings: Mus musculus
Method: We also assessed the antiproliferative activity of compounds of Formula (I) against BaF3 cells expressing the target EGFR mutations or control (i.e., cell lines expressing wildtype EGFR). Assays were conducted using MTT.

[6] = tested on: BAF3 EGFR L858R-T790M PURO POOL; experiment: Cell proliferation (MTT), BAF3 EGFR L858R-T790M; format: cell-based; settings: Ba/F3 EGFR
Outline: as §2

Sequence of human EGFR (native sequence) (P00533 25-1210): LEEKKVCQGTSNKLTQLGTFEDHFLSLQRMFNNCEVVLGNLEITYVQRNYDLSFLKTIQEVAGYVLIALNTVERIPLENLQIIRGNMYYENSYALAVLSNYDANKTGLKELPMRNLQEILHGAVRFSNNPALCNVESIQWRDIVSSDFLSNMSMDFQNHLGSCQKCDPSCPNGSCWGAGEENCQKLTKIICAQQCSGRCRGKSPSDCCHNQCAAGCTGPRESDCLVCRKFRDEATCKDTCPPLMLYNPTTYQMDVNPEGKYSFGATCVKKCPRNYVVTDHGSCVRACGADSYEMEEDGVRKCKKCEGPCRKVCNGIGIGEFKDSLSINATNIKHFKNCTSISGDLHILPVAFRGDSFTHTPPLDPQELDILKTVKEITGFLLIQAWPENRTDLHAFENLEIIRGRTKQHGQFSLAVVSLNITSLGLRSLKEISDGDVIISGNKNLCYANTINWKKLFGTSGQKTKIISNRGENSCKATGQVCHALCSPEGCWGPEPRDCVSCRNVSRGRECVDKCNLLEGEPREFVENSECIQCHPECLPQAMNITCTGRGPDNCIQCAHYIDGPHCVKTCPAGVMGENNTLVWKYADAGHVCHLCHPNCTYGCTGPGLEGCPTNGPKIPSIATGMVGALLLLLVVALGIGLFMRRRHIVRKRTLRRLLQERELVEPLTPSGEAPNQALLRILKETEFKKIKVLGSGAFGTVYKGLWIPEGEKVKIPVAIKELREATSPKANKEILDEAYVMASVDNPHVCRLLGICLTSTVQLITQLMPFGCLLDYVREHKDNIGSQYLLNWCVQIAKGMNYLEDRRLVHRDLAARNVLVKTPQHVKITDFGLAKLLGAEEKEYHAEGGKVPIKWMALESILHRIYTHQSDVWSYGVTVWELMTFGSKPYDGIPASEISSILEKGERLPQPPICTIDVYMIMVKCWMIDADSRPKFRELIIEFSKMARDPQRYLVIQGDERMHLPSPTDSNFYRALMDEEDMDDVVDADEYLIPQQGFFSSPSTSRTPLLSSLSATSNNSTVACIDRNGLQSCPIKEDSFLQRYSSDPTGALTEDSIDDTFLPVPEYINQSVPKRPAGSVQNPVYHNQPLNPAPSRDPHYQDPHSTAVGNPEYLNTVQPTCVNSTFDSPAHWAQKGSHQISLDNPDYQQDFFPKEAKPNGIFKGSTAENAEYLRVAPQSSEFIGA
Sequence of BAF3 EGFR DEL T790M PURO POOL (P00533 with tags, fused parts or gaps DEL746-750/T790M): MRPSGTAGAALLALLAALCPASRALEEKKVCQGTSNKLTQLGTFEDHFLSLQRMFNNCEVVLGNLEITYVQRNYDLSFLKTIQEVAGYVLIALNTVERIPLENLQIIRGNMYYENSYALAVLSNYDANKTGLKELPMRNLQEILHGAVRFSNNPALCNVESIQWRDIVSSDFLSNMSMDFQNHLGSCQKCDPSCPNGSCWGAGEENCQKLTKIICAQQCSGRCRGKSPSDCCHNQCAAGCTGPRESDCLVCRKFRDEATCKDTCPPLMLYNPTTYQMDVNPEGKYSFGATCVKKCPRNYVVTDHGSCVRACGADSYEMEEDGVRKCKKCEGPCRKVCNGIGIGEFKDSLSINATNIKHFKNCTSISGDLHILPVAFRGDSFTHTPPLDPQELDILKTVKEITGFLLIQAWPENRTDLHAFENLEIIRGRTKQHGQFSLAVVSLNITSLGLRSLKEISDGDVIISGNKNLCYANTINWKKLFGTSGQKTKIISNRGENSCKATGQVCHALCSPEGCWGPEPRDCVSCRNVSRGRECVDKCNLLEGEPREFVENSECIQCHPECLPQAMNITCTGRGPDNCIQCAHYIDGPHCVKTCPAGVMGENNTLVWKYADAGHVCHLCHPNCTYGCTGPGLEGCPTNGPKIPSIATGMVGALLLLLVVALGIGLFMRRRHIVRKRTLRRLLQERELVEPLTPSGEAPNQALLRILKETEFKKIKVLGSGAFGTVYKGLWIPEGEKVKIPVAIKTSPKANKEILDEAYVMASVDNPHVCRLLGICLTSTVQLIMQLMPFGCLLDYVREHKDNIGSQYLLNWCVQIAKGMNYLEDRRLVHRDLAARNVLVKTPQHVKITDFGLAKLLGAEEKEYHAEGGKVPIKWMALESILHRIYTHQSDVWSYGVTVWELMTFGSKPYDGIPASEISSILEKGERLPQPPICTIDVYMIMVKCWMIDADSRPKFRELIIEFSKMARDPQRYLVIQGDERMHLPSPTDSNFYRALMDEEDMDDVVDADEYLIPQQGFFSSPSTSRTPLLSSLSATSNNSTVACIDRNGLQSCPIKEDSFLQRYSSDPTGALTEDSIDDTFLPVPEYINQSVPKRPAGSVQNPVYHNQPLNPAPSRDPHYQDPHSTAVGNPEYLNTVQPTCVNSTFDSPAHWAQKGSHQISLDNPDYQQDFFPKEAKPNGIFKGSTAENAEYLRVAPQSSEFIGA
Sequence of EGFR bearing the L858R mution (P00533 25-1210 L858R): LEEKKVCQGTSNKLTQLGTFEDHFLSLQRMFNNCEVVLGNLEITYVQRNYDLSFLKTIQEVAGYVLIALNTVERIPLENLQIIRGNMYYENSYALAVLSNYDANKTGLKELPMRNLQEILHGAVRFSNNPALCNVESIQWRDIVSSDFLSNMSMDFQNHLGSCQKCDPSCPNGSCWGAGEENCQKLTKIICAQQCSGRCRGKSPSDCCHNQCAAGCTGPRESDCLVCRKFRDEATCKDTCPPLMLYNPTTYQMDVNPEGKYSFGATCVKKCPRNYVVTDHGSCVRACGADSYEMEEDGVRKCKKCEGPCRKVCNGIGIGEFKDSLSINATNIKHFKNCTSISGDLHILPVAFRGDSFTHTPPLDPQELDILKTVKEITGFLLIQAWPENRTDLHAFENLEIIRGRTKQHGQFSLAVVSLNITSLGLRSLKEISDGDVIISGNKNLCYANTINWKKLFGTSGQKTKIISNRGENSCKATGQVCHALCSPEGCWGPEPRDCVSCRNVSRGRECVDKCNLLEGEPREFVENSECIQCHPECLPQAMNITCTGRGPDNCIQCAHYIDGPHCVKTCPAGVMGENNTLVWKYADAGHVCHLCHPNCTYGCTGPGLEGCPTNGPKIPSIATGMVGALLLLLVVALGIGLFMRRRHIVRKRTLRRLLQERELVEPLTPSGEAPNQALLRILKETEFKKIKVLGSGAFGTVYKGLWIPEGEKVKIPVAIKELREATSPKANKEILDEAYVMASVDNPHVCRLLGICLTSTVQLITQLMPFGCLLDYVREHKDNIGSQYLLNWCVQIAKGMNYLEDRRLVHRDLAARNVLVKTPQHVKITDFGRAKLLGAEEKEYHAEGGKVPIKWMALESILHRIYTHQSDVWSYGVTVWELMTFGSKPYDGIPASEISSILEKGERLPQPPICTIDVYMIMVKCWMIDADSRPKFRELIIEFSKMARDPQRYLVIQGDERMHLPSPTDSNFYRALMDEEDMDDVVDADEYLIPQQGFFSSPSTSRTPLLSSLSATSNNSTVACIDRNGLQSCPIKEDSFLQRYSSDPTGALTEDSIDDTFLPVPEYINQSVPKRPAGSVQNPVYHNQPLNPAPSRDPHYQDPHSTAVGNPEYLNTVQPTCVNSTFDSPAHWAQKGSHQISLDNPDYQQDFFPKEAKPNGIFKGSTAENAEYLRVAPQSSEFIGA
Sequence of EGFR bearing the L858R/T790M double mutation (P00533 25-1210 T790M/L858R): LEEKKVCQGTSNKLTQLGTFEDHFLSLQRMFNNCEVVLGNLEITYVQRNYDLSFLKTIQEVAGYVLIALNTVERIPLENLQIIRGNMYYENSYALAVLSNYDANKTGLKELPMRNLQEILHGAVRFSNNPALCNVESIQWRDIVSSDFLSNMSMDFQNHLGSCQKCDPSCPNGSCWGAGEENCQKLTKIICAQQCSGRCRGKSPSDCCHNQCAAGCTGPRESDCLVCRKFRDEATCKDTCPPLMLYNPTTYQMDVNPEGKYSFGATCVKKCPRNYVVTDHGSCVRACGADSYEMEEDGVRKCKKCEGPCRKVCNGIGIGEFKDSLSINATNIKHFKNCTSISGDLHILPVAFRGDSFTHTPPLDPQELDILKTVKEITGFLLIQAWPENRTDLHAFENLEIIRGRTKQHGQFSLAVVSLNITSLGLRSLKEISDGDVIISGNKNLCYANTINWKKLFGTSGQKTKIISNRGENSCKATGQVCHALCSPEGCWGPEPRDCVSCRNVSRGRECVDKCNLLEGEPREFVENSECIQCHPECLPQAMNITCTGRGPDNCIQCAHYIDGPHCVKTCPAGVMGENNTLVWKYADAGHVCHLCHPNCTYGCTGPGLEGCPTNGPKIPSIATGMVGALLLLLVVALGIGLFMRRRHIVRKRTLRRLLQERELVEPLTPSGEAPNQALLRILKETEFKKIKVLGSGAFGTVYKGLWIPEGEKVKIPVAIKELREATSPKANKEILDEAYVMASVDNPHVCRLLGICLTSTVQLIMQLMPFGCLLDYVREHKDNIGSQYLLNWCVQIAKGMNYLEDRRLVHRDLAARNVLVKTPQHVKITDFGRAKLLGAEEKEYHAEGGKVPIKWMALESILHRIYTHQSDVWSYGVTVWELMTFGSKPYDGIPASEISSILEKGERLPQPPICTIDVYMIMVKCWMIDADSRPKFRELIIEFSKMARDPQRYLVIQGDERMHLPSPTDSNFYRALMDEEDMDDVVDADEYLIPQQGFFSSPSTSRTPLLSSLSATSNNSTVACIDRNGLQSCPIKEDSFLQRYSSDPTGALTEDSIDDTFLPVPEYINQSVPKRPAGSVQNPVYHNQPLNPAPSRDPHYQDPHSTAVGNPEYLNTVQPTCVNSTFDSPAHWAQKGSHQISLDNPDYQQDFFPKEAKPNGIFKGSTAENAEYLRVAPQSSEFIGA

## C=CC(=O)N(C(=O)C=C)c1ccc(OC)c(Nc2ncc(Cl)c(Nc3ccccc3P(C)(C)=O)n2)c1 [Example 26, N-acryloyl-N-(3-((5-chloro-4-((2-(dimethylphosphoryl)phenyl)amino)pyrimidin-2-yl)amino)-4-methoxyphenyl)acrylamide]
[1]
  IC50: 101 to 250 nM
[2]
  IC50: ≥ 250 nM
[3]
  IC50: < 51 nM
[4]
  IC50: 101 to 250 nM
[5]
  IC50: ≥ 250 nM
[6]
  IC50: 51 to 100 nM

## COc1ccc(NC(=O)C2(C)CO2)cc1Nc1ncc(Cl)c(Nc2ccccc2P(C)(C)=O)n1 (stereo not drawn) [Example 10, N-(3-((5-chloro-4-((2-(dimethylphosphoryl)phenyl)amino)pyrimidin-2-yl)amino)-4-methoxyphenyl)-2-methyloxirane-2-carboxamide]
[1]
  IC50: < 51 nM
[2]
  IC50: < 51 nM
[3]
  IC50: < 51 nM
[4]
  IC50: < 51 nM
[5]
  IC50: ≥ 250 nM
[6]
  IC50: < 51 nM

## COc1ccc(N2C(=O)C=CC2=O)cc1Nc1ncc(Cl)c(Nc2ccccc2P(C)(C)=O)n1 [Example 46, 1-(3-((5-chloro-4-((2-(dimethylphosphoryl)phenyl)amino)pyrimidin-2-yl)amino)-4-methoxyphenyl)-1H-pyrrole-2,5-dione]
[1]
  IC50: ≥ 250 nM
[2]
  IC50: ≥ 250 nM
[3]
  IC50: ≥ 250 nM
[4]
  IC50: 101 to 250 nM
[5]
  IC50: ≥ 250 nM
[6]
  IC50: ≥ 250 nM

## C=CC(=O)Nc1cc(Nc2ncc(Cl)c(Nc3ccccc3P(C)(C)=O)n2)c(OC)cc1OCCOC [Example 25, N-(5-((5-chloro-4-((2-(dimethylphosphoryl)phenyl)amino)pyrimidin-2-yl)amino)-4-methoxy-2-(2-methoxyethoxy)phenyl)acrylamide]
[1]
  IC50: < 51 nM
[2]
  IC50: ≥ 250 nM
[3]
  IC50: < 51 nM
[4]
  IC50: < 51 nM
[5]
  IC50: ≥ 250 nM
[6]
  IC50: 51 to 100 nM

## COc1cc(F)c(NC(=O)/C=C/CN(C)C)cc1Nc1ncc(Cl)c(Nc2ccccc2P(C)(C)=O)n1 [Example 56, (E)-N-(5-((5-chloro-4-((2-(dimethylphosphoryl)phenyl)amino)pyrimidin-2-yl)amino)-2-fluoro-4-methoxyphenyl)-4-(dimethylamino)but-2-enamide]
[1]
  IC50: < 51 nM
[2]
  IC50: 101 to 250 nM
[3]
  IC50: < 51 nM
[4]
  IC50: < 51 nM
[5]
  IC50: ≥ 250 nM
[6]
  IC50: < 51 nM
